# Like-named read-outs stand apart in the source and are kept apart here.
# Tests used:
# Cryptococcus gattii = assay: Antifungal growth assay, defensin plus proteinase inhibitor; format: cell-based; conditions: for Expected inhibition: Ee, Limpel formula; for Synergy: Io-Ee
# Experimental: (§1) Spores are isolated from sporulating fungus spp. growing on yeast extract peptone dextrose agar (Candida albicans, Cryptococcus gattii—1.5×10^6) or ½ strength Sabouraud dextrose agar (Trichophyton interdigitale, Microsporum fulvum—5×10^4). Spores are removed from the plates by the addition of ½ strength potato dextrose broth (PDB). Spore concentrations are measured using a haemocytometer.
# (§2) Antifungal assays were conducted in 96 well microtitre plates. Wells were loaded with 10 μL of filter sterilized (0.22 μm syringe filter, Millipore) defensin (10× stock for each final concentration) or water, 10 μL, of filter sterilized (0.22 μm syringe filter, Millipore) proteinase inhibitor or chemical fungicide (10× stock for each final concentration) or water and 80 μL of 5×10^3 spores/mL in ½ strength PDB. The plates were incubated at 24° C. Fungal growth was assayed by measuring optical density at 595 nm (A595) using a microtitre plate reader (SpectraMax Pro M2; Molecular Devices. Growth was allowed to proceed until the optical density (OD) of the fungus in the absence of any test defensin reached an OD of 0.2. Each test was performed in duplicate.
# (§3) Synergy is classified as the difference between the observed % fungal growth inhibition caused by the combination of a defensin and a proteinase inhibitor (or a defensin and a chemical fungicide) (Io value) and the expected % fungal growth inhibition of the defensin and the proteinase inhibitor (or the defensin and the chemical fungicide) based on the sum of the % fungal growth inhibition of the defensin and the proteinase inhibitor (or the defensin and the chemical fungicide) on their own (Ee value calculated according to the Limpel formula used by Richer et al. (1987) supra). The difference, Io-Ee, is the synergy value. A synergy value up to 15 means no significant synergy; 15-30 is a low level of synergy; 30-60 is a medium level of synergy; and >60 is a high level of synergy. Synergy calculations are presented in Tables 2 through 7 wherein, as indicated above, Ee is the expected effect from the additive response according to Limpel's formula expressed as percent inhibition and To is the percent inhibition observed. Synergy occurs when To values are higher than Ee values.
# [1] = test system: Trichophyton interdigitale; assay: as above; format: cell-based; conditions: for Expected inhibition: Ee, Limpel formula; for Synergy: Io-Ee
# Experimental: as §1, §2, §3
# Microsporum fulvum = assay: as above; format: cell-based; conditions: for Expected inhibition: Ee, Limpel formula; for Synergy: Io-Ee
# Experimental: as §1, §2, §3
# plasma membrane = conditions: cited from earlier work
# Candida albicans [2] = assay: Antifungal growth assay, defensin plus proteinase inhibitor; format: cell-based; set-up: key to Synergy: Io-Ee in % inhibition points; >60 high synergy, <15 none; conditions: for Expected inhibition: Ee, Limpel formula; for Synergy: Io-Ee
# Experimental: as §1, §2, §3
# Candida albicans [3] = assay: Antifungal growth assay, defensin plus chemical fungicide; format: cell-based; set-up: key to Synergy: Io-Ee in % inhibition points; <15 none, 15-30 low, 30-60 medium, >60 high; conditions: for Expected inhibition: Ee, Limpel formula; for Synergy: Io-Ee
# Experimental: Chemical fungicides were sourced commercially and were prepared as 10× stock solutions in H2O (caspofungin and fenpropimorph) or as a 100× stock in methanol (terbinafine).
# as §1, §2, §3
# [4] = defensin 2 μM + BPTI (0.625 μM)
# [5] = defensin 2 μM + HvCPI6 (2.5 μM)
# [6] = defensin 2 μM + SlCys9N (2.5 μM)
# [7] = defensin 1 μM + BPTI (0.625 μM)
# [8] = defensin 1 μM + HvCPI6 (2.5 μM)
# [9] = defensin 1 μM + SlCys9N (2.5 μM)
# [10] = defensin 0.5 μM + BPTI (0.625 μM)
# [11] = defensin 0.5 μM + HyCPI6 (0.625 μM)
# [12] = defensin 0.5 μM + SlCys9N (5 μM)
# [13] = defensin 2 μM + HyCPI6 (2.5 μM)
# [14] = permeabilizing defensin 1 μM + Caspofungin (2 ng/ml)
# [15] = defensin 0.5 μM + HvCPI6 (2.5 μM)
# [16] = defensin 0.5 μM + SlCys9N (2.5 μM)
# [17] = defensin 1.5 μM + Caspofungin (2 ng/ml)
# [18] = defensin 1.5 μM + Fenpropimorph (2 ug/ml)
# [19] = defensin 1.5 μM + Terbinafine (4 ng/ml)
substance,measurement,setting,value
"NaD1: Solanaceous Class II plant defensin from flowers of Nicotiana alata (Q8GTMO); permeabilizing defensin (RECKTESNTFPGICITKPPCRKACISEKFTDGHCSKILRRCLCTKPC; UniProt Q8GTM0 26-72, looked up)",Observed inhibition,Cryptococcus gattii; [4],95.6%
same,Expected inhibition,Cryptococcus gattii; [4],22.0%
same,Synergy,Cryptococcus gattii; [4],73.7
same,Observed inhibition,Cryptococcus gattii; [5],96.2%
same,Expected inhibition,Cryptococcus gattii; [5],32.1%
same,Synergy,Cryptococcus gattii; [5],64.1
same,Observed inhibition,Cryptococcus gattii; [6],98.8%
same,Expected inhibition,Cryptococcus gattii; [6],0.0%
same,Synergy,Cryptococcus gattii; [6],98.8
same,Observed inhibition,[1]; [7],89.1%
same,Expected inhibition,[1]; [7],57.9%
same,Synergy,[1]; [7],31.2
same,Observed inhibition,[1]; [8],71.6%
same,Expected inhibition,[1]; [8],33.5%
same,Synergy,[1]; [8],38.1
same,Observed inhibition,[1]; [9],81.1%
same,Expected inhibition,[1]; [9],28.1%
same,Synergy,[1]; [9],53.0
same,Observed inhibition,Microsporum fulvum; [10],52.9%
same,Expected inhibition,Microsporum fulvum; [10],34.3%
same,Synergy,Microsporum fulvum; [10],18.6
same,Observed inhibition,Microsporum fulvum; [11],43.8%
same,Expected inhibition,Microsporum fulvum; [11],19.0%
same,Synergy,Microsporum fulvum; [11],24.8
same,Observed inhibition,Microsporum fulvum; [12],79.9%
same,Expected inhibition,Microsporum fulvum; [12],40.7%
same,Synergy,Microsporum fulvum; [12],39.2
same,Membrane permeabilization,plasma membrane; at concentrations corresponding to the IC50,significant membrane permeabilization
same,Membrane permeabilization,"plasma membrane; at low concentrations that do not cause growth inhibition, van der Weerden et al. (2008)",some membrane permeabilization
same,Time at which permeabilization begins,plasma membrane; van der Weerden et al. (2010),≤ 15 min
same,Time at which permeabilization reaches its maximum,plasma membrane; van der Weerden et al. (2010),80 min
same,Observed inhibition,Candida albicans [2]; [4],94.1%
same,Expected inhibition,Candida albicans [2]; [4],29.7%
same,Synergy,Candida albicans [2]; [4],64.4
same,Observed inhibition,Candida albicans [2]; [13],64.7%
same,Expected inhibition,Candida albicans [2]; [13],0.0%
same,Synergy,Candida albicans [2]; [13],64.7
same,Observed inhibition,Candida albicans [2]; [6],94.8%
same,Expected inhibition,Candida albicans [2]; [6],31.9%
same,Synergy,Candida albicans [2]; [6],62.9
same,Observed inhibition,Candida albicans [3]; [14],61.7%
same,Expected inhibition,Candida albicans [3]; [14],1.2%
same,Synergy,Candida albicans [3]; [14],60.5
"HXP4: artificial (synthetic) defensin variant, SEQ ID NO:8; permeabilizing (RECKTESHRFKGPCITKPPCRKACISEKFTDGHCSKILRRCLCTKPC; HXP4 protein)",Observed inhibition,Cryptococcus gattii; [10],97.4%
same,Expected inhibition,Cryptococcus gattii; [10],48.8%
same,Synergy,Cryptococcus gattii; [10],48.6
same,Observed inhibition,Cryptococcus gattii; [15],97.4%
same,Expected inhibition,Cryptococcus gattii; [15],18.6%
same,Synergy,Cryptococcus gattii; [15],78.8
same,Observed inhibition,Cryptococcus gattii; [16],99.3%
same,Expected inhibition,Cryptococcus gattii; [16],0.0%
same,Synergy,Cryptococcus gattii; [16],99.3
same,Observed inhibition,[1]; [10],69.0%
same,Expected inhibition,[1]; [10],32.9%
same,Synergy,[1]; [10],36.1
same,Observed inhibition,[1]; [15],56.8%
same,Expected inhibition,[1]; [15],31.1%
same,Synergy,[1]; [15],25.7
same,Observed inhibition,[1]; [16],53.0%
same,Expected inhibition,[1]; [16],9.7%
same,Synergy,[1]; [16],43.4
same,Observed inhibition,Candida albicans [2]; [4],100%
same,Expected inhibition,Candida albicans [2]; [4],16.2%
same,Synergy,Candida albicans [2]; [4],83.8
same,Observed inhibition,Candida albicans [2]; [13],93.5%
same,Expected inhibition,Candida albicans [2]; [13],15.9%
same,Synergy,Candida albicans [2]; [13],77.6
same,Observed inhibition,Candida albicans [2]; [6],92.4%
same,Expected inhibition,Candida albicans [2]; [6],33%
same,Synergy,Candida albicans [2]; [6],59.4
same,Observed inhibition,Candida albicans [3]; [17],64.5%
same,Expected inhibition,Candida albicans [3]; [17],14.5%
same,Synergy,Candida albicans [3]; [17],50.0
same,Observed inhibition,Candida albicans [3]; [18],97.6%
same,Expected inhibition,Candida albicans [3]; [18],15%
same,Synergy,Candida albicans [3]; [18],82.6
same,Observed inhibition,Candida albicans [3]; [19],82.7%
same,Expected inhibition,Candida albicans [3]; [19],44.8%
same,Synergy,Candida albicans [3]; [19],37.9

# Source: patent publication US10568930B2, “Agents and methods of treatment” (Hexima Limited, priority 2014, dated 2020)
